For experiment [1], the system named is 22RV1 cells. Put plainly: Inhibition of the proliferation of drug-resistant prostate cancer cell 22RV1 (CCK-8). It is filed as cell-based. The settings on record: Homo sapiens; 22RV1 cells (enzalutamide-resistant), same method. As to the method: (1) Experimental materials and instruments: LNCaP/AR cell line and 22RV1 cell line (provided by Sichuan Kangcheng Biotechnology Co., Ltd.) Fetal bovine serum FBS (Gibco, Cat. No. 10099-141) 0.01M PBS (Biosharp, Cat. No. 162262) RIPM1640 medium (Hyclone, Cat. No. 308090.01) Penicillin-Streptomycin (Hyclone, Cat. No. SV30010) Cell counting kit-8 (Signalway Antibody, Cat. No. CP002) DMSO (Sigma, Cat. No. D5879) Centrifuge Tube, 15 ml (Excell Bio, Cat. No. CS015-0001) Cell Culture Dish, (Excell Bio, Cat. No. CS016-0128) 96-well cell culture plate (Corning, Cat. No. 3599) Microplate reader (Thermo Multiskan MK3 type)
a. Preparation of Buffer Cell culture medium: RIPM1640 medium, 10% FBS, 1% Pen Strep: PBS buffer: PBS powder was dissolved in 2 L of ultrapure water and sterilized. b. Experimental Procedures 1) LNCaP/AR cells were subcultured in cell culture media, and then the cells in good growth condition were seeded in a 96-well plate at 80 μL/well (1000 cells/well), and cultured overnight in a 37° C., 5% CO2 cell incubator. 2) The drug was prepared into a 10 mM stock solution with dimethyl sulfoxide (DMSO). Prior to use, the stock solution was diluted in a ratio of […] with DMSO, and then diluted at a 3-fold gradient to obtain 9 serial concentrations. Then, each concentration of compound was further diluted in a ratio of 1:200 with the culture medium (to ensure that the DMSO concentration in the culture system was 0.1%), and two wells were set for each concentration. 20 μL of the diluted compound solution was added to the well of the cell culture (with a final concentration of 10 μM, 3.3 μM, 1.1 μM . . . ), and then the plate was gently tapped to thoroughly mix. In addition, the experiment included 3 negative control wells only containing cells and 3 blank control wells only containing culture medium (6 wells were each added with DMSO diluted in a ratio of 1:200 with 20 μL of culture medium). c. Result Detection: 1) After culturing for 6 days, 10 μL of CCK-8 was added to each well, and the plate was further incubated for 1 h in a 37° C., 5% CO2 cell incubator. 2) The absorbance (OD value) was measured at 450 nm with a multifunctional microplate reader. 3) The data was analyzed by the Dose-response-inhibition equation in the software GraphPad Prism5, and the IC50 value was obtained. 2. Biological assay of the inhibition on the proliferation of other drug-resistant prostate cancer cells
The same test method was used to determine the inhibitory activity of the compound according to the present invention against drug-resistant prostate cancer cell 22RV1.

Experiment [2] concerns LNCaP/AR cells. Put plainly: Inhibition of the proliferation of LNCap/AR cells (CCK-8). Format: cell-based. The settings on record: 144 h, read-out: LNCap/AR IC50. In short, it runs like this: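 LNCaP/AR cells (1000/well, RPMI1640 + 10% FBS) were treated for 6 days at 37 °C with 9-point 3-fold dilutions from 10 μM final, 0.1% DMSO, in duplicate. Viability was read by CCK-8 absorbance at 450 nm after 1 h, and IC50 came from a dose-response-inhibition fit.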

Where [3] appears, read: LNCaP/AR cells, 6 days culture, CCK-8.

Where two headings read alike, the source gives them in different places.

For `Cc1ccc(-c2c(C)noc2C)cc1N(CCCC1CCN(c2ccc3c(c2)C(=O)N(C2CCC(=O)NC2=O)C3)CC1)c1ccc(C2(C#N)CC2)cc1` (centres unmarked) [Compound 31, 1-(4-((5-(3,5-Dimethylisoxazol-4-yl)-2-methylphenyl)(3-(1-(2-(2,6-dioxopiperidin-3-yl)-3-oxoisoindolin-5-yl)piperidin-4-yl)propyl)amino)phenyl)cyclopropane-1-nitrile], the IC50 in experiment [1] was less than 100 nM; in experiment [2] (setting [3]), 101 to 500 nM.

In the case of `Cc1ccc(-c2c(C)noc2C)cc1N(CCCC1CCN(c2ccc3c(c2)CN(C2CCC(=O)NC2=O)C3=O)CC1)c1ccc(C2(C#N)CC2)cc1` (centres unmarked) [Compound 32, 1-(4-((5-(3,5-Dimethylisoxazol-4-yl)-2-methylphenyl)(3-(1-(2-(2,6-dioxopiperidin-3-yl)-1-oxoisoindolin-5-yl)piperidin-4-yl)propyl)amino)phenyl)cyclopropane-1-nitrile], the IC50 in experiment [1] is less than 100 nM; in experiment [2] (setting [3]), 101 to 500 nM.

Take `Cc1ccc(-c2c(C)noc2C)cc1N(c1ccc(C2(C#N)CC2)cc1)C1CN(CC2CCN(c3ccc4c(c3)C(=O)N(C3CCC(=O)NC3=O)C4=O)CC2)C1` (centres unmarked) [Compound 34, 1-(4-((5-(3,5-Dimethylisoxazol-4-yl)-2-methylphenyl) (1-((1-(2-(2,6-dioxopiperidin-3-yl)-1,3-dioxoisoindolin-5-yl)piperidin-4-yl)methyl)azetidin-3-yl)amino)phenyl)cyclopropane-1-nitrile]: the IC50 in experiment [1] and in experiment [2] (setting [3]) was more than 2000 nM throughout.

Regarding `Cc1ccc(-c2c(C)noc2C)cc1N(c1ccc(C2(C#N)CC2)cc1)C1CN(c2ccc3c(c2)C(=O)N(C2CCC(=O)NC2=O)C3=O)C1` (centres unmarked) [Compound 35, 1-(4-((5-(3,5-Dimethylisoxazol-4-yl)-2-methylphenyl)(1-(2-(2,6-dioxopiperidin-3-yl)-1,3-dioxoisoindolin-5-yl)azetidin-3-yl)amino)phenyl)cyclopropane-1-nitrile], the IC50 in experiment [1] and in experiment [2] (setting [3]) was more than 2000 nM each time.

`Cc1ccc(-c2c(C)noc2C)cc1N(CC1CC(Nc2cc3c(cc2F)CN(C2CCC(=O)NC2=O)C3=O)C1)c1ccc(C2(C#N)CC2)cc1` (centres unmarked) [Compound 38]: the IC50 was 501 to 2000 nM in experiment [1] and more than 2000 nM in experiment [2] (setting [3]).

`Cc1ccc(-c2c(C)noc2C)cc1N(CCCCNc1cc2c(cc1F)C(=O)N(C1CCC(=O)NC1=O)C2=O)c1ccc(C2(C#N)CC2)cc1` (centres unmarked) [Compound 40]: the IC50 was in the range of 101 to 500 nM in experiment [1] and 501 to 2000 nM in experiment [2] (setting [3]).

Take `Cc1ccc(-c2c(C)noc2C)cc1N(CCCCNc1ccc2c(c1)C(=O)N(C1CCC(=O)NC1=O)C2=O)c1ccc(C2(C#N)CC2)cc1` (centres unmarked) [Compound 41, 1-(4-((5-(3,5-Dimethylisoxazol-4-yl)-2-methylphenyl)(4-((2-(2,6-dioxopiperidin-3-yl)-1,3-dioxoisoindolin-5-yl)amino)butyl)amino)phenyl)cyclopropane-1-nitrile]: the IC50 is less than 100 nM in experiment [1] and 101 to 500 nM in experiment [2] (setting [3]).

`Cc1ccc(-c2c(C)noc2C)cc1N(CCCCNc1cc2c(cc1F)CN(C1CCC(=O)NC1=O)C2=O)c1ccc(C2(C#N)CC2)cc1` (centres unmarked) [Compound 42, 1-(4-((5-(3,5-Dimethylisoxazol-4-yl)-2-methylphenyl)(4-((2-(2,6-dioxopiperidin-3-yl)-6-fluoro-3-oxoisoindolin-5-yl)amino)butyl)amino)phenyl)cyclopropane-1-nitrile]: the IC50 in experiment [1] was in the range of 501 to 2000 nM; in experiment [2] (setting [3]), 101 to 500 nM.

As to `Cc1ccc(-c2c(C)n[nH]c2C)cc1N(CCCCCOCC(=O)N[C@H](C(=O)N1C[C@H](O)C[C@H]1C(=O)N[C@@H](C)c1ccc(-c2scnc2C)cc1)C(C)(C)C)c1ccc(C#N)c(Cl)c1` [Compound 44, (2S,4R)-1-((S)-2-(2-((5-((3-chloro-4-cyanophenyl)(5-(3,5-dimethyl-1H-pyrazol-4-yl)-2-methylphenyl)amino)pentyl)oxy)acetylamino)-3,3-dimethylbutyryl)-4-hydroxy-N—((S)-1-(4-(4-methylthiazol-5-yl)phenyl)ethyl)pyrrolidinyl-2-formamide], the IC50 was more than 2000 nM in experiment [1] and 101 to 500 nM in experiment [2] (LNCaP/AR).

Take `CC(=O)O[C@@H]1C[C@@H](C(=O)N[C@@H](C)c2ccc(-c3scnc3C)cc2)N(C(=O)[C@@H](NC(=O)COC2CN(CCN(c3ccc(-n4ccnc4)c(Br)c3)c3cc(-c4c(C)noc4C)ccc3C)C2)C(C)(C)C)C1` [Compound 101, (3R,5S)-1-((S)-2-(2-((1-(2-((3-Bromo-4-(1H-imidazol-1-yl)phenyl)(5-(3,5-dimethylisozazol-4-yl)-2-methylphenyl)amino)ethyl)azetidin-3-yl)oxy)acetylamino)-3,3-dimethylbutyryl)-5-(((S)-1-(4-(4-methylthiazol-5-yl)phenyl)ethyl)carbamoyl)pyrrolidine-3-yl acetate]: the IC50 in experiment [2] (setting [3]) is more than 2000 nM.

In the case of `Cc1ccc(-c2c(C)noc2C)cc1N(CCCCCCNc1cccc2c1CN(C1CCC(=O)NC1=O)C2=O)c1ccc(-n2ccnc2)c(Br)c1` (centres unmarked) [Compound 118, 3-(4-((6-((3-Bromo-4-(1H-imidazol-1-yl)phenyl)(5-(3,5-dimethylisoxazol-4-yl)-2-methylphenyl)amino)hexyl)amino)-1-oxoisoindolin-2-yl)piperidine-2,6-dione], the IC50 in experiment [2] (setting [3]) was more than 2000 nM.

As for `Cc1ccc(-c2c(C)noc2C)cc1N(CCCC1CCN(CC(=O)N[C@H](C(=O)N2C[C@H](O)C[C@H]2C(=O)N[C@@H](C)c2ccc(-c3scnc3C)cc2)C(C)(C)C)CC1)c1ccc(-n2ccnc2)c(Br)c1` [Compound 141, (2S,4R)-1-((S)-2-(2-(4-(3-((3-bromo-4-(1H-imidazol-1-yl)phenyl)(5-(3,5-dimethylisoxazol-4-yl)-2-methylphenyl)amino)propyl)piperidin-1-yl)acetamido)-3,3-dimethylbutyryl)-4-hydroxy-N—((S)-1-(4-(4-methylthiazol-5-yl)phenyl)ethyl)tetrahydropyrrole-2-amide], the IC50 in experiment [2] (setting [3]) is 101 to 500 nM.

For `CC(=O)O[C@@H]1C[C@@H](C(=O)N[C@@H](C)c2ccc(-c3scnc3C)cc2)N(C(=O)[C@@H](NC(=O)CN2CCC(CCCN(c3ccc(-n4ccnc4)c(Br)c3)c3cc(-c4c(C)noc4C)ccc3C)CC2)C(C)(C)C)C1` [Compound 142, (3R,5S)-1-((S)-2-(2-(4-(3-((3-Bromo-4-(1H-imidazol-1-yl)phenyl)(5-(3,5-4-yl)-2-methylphenyl)amino)propyl)piperidin-1-yl)acetamido)-3,3-dimethylbutyryl)-5-(((S)-1-(4-(4-methylthiazol-5-yl)phenyl)ethyl)carbamoyl)pyrrolidinyl-3-acetate], the IC50 in experiment [2] (setting [3]) was 101 to 500 nM.

For `Cc1ccc(-c2c(C)noc2C)cc1N(CCCCCOCC(=O)Nc1cccc2c1CN(C1CCC(=O)NC1=O)C2=O)c1ccc(C2(C#N)CC2)cc1` (centres unmarked) [Compound 144], in experiment [2] (setting [3]), the IC50 is 101 to 500 nM.

With `Cc1ccc(-c2c(C)noc2C)cc1N(CCCCCNc1cc2c(cc1F)C(=O)N(C1CCC(=O)NC1=O)C2=O)c1ccc(C2(C#N)CC2)cc1` (centres unmarked) [Compound 148, 1-(4-((5-(3,5-Dimethylisoxazol-4-yl)-2-methylphenyl)(5-((2-(2,6-dioxopiperidin-3)-6-fluoro-1,3-dicarbonylisoindolin-5))amino)pentyl)amino)phenylcyclopropanecarbonitrile], the IC50 in experiment [2] (setting [3]) was in the range of 501 to 2000 nM.

As for `Cc1ccc(-c2c(C)noc2C)cc1N(C[C@H]1CC[C@H](CNc2cc3c(cc2F)C(=O)N(C2CCC(=O)NC2=O)C3=O)CC1)c1ccc(C2(C#N)CC2)cc1` (some centres unmarked) [Compound 150], the IC50 in experiment [2] (setting [3]) was 501 to 2000 nM.

As for `Cc1ccc(-c2c(C)noc2C)cc1N(CCCCCNc1ccc2c(c1)C(=O)N(C1CCC(=O)N(C)C1=O)C2=O)c1ccc(C2(C#N)CC2)cc1` (centres unmarked) [Compound 151, 1-(4-((5-(3,5-Dimethylisoxazol-4-yl)-2-methylphenyl)(5-((2-(1-methyl-2,6-dioxopiperidin-3)-1,3-dicarbonylisoindolin-5-yl))amino)pentyl)amino)phenylcyclopropanecarbonitrile], the IC50 in experiment [2] (setting [3]) was more than 2000 nM.

These data come from patent publication US20220257774A1, “AROMATIC AMINE AR AHD BET TARGETING PROTEIN DEGRADATION CHIMERA COMPOUND AND USE” (HINOVA PHARMACEUTICALS INC., priority 2019, published 2022).
